# Source: patent US20210236532A1, “THERAPEUTIC AGENT FOR FRONTOTEMPORAL LOBAR DEGENERATION, METHOD FOR SCREENING THERAPEUTIC AGENT FOR FRONTOTEMPORAL LOBAR DEGENERATION AND METHOD FOR TREATING FRONTOTEMPORAL LOBAR DEGENERATION” (National University Corporation Tokyo Medical and Dental …, priority 2018, published 2021)
# Assays:
# Format in all cases: in vivo
# PGRN-KI mice [1] = test: Fear conditioning experiment (freezing reaction)
# Protocol: (§1) The following two types of behavioral experiments (fear conditioning experiment and Morris water maze test) were performed, and an impaired cognitive response was found in the PGRN-KI mice of 12 weeks or older. Such an impaired response is a symptom similarly seen in frontotemporal lobar degeneration. It is to be noted that all behavioral tests are carried out according to the method indicated by Ito H. et al. (Mol Psychiatry. 2015 April; 20 (4): 459-471).
# A fear conditioning experiment was performed with the PGRN-KI mice and control mice (C57BL/6J mice without the knock-in). Specifically, the mice received electrical stimulation (0.4 mA, 2 s) on their paws along with sound stimulation (65 dB white noise, 30 s). Twenty-four hours later, the frequency of the freezing reaction in the mice was measured when the mice were subjected to the sound stimulation without the electrical stimulation in the same chamber. […] This means that the cognitive response of the PGRN-KI mice was impaired as compared with the control mice. […]
# PGRN-KI mice [2] = test: Morris water maze test
# Protocol: as §1
# A Morris water maze test was performed with the PGRN-KI mice and control mice (C57BL/6J mice without the knock-in). Specifically, the mice received a 60-second trial four times per day for 5 days, and the time period taken for each mouse to reach the platform was measured. […] This means that the cognitive response of the PGRN-KI mice was impaired as compared with the control mice.
# (§2) The knockdown of each gene was performed according to the following procedures: Lentiviral particles (2×10^5 titer units/100 μl) containing scrambled shRNA (sc-108080, manufactured by Santa Cruz Biotechnology), Tau-shRNA (sc-430402-V, manufactured by Santa Cruz Biotechnology), B-Raf shRNA (sc-63294-V, manufactured by Santa Cruz Biotechnology), or Tyro3-siRNA (iV037848, manufactured by ABM) were diluted to 1:4 with ACSF buffer (NaCl 125 mM; KCl 2.5 mM; NaH2PO4 1.25 mM; MgCl2 1 mM; CaCl2) 1 mM; NaHCO326 mM; and glucose 25 mM). […]
# PGRN-KI mice [3] = test: Morphological analysis of spines (two-photon excitation microscope, IMARIS)
# Protocol: as §2, with “mM). Further, a plasmid vector (10 μg) containing scrambled shRNA (TG501653, manufactured by OriGene), PKCα-shRNA (TG501653, manufactured by OriGene), or Gas6-shRNA (sc-35451-SH, manufactured by Santa Cruz Biotechnology) was dissolved in 100 μl of in vivo-jetPEI (201-10G, manufactured by Polyplus-transfection).” for “mM).”
# Images of dendrites from the mice (at 12 weeks of age) knocked down for each gene were acquired using a two-photon excitation microscope. In addition, the number of spines was measured using “IMARIS software” (IMARIS 7.2.2, manufactured by Bitplane GmbH). […]
# Images of dendrites from the mice (at 12 weeks of age) in each administered group were acquired using a two-photon excitation microscope. In addition, the number of spines was measured using “IMARIS software” (IMARIS 7.2.2, manufactured by Bitplane GmbH). […]
# [4] = PGRN-KI mice, treated vs untreated/unknocked-down PGRN-KI mice
# [5] = control mice (C57BL/6J without the knock-in), with or without agent
structure (smiles),measurement,setting,value
Cn1c2ccccc2c2c3c(c4c5ccccc5n(CCC#N)c4c21)CNC3=O [Go6976],cognitive response in the fear conditioning experiment,PGRN-KI mice [1]; [4],significantly improved
same,cognitive response in the fear conditioning experiment,PGRN-KI mice [1]; [5],no change
same,cognitive response in the Morris water maze test,PGRN-KI mice [2]; [4],significantly improved
same,cognitive response in the Morris water maze test,PGRN-KI mice [2]; [5],no change
same,number of spines,"PGRN-KI mice [3]; PGRN-KI mice at 12 weeks of age, treated vs untreated/unknocked-down PGRN-KI mice",markedly higher number of spines
same,number of spines,"PGRN-KI mice [3]; control mice (C57BL/6J without the knock-in) at 12 weeks of age, with or without agent",no change
